# Measurements taken from patent US12559784B2 (priority 2023, dated 2026).
# Several values for one entry are separate records, joined by “and”; a condition that tells them apart may be missing. Equal values may be shown once. Read-outs that look alike come from different tables or passages of the source.
# What was measured:
# porcine skin = conditions: R 1 and 2
# Procedure: Our initial studies involved using fresh and frozen porcine skin “buttons”. These buttons were punched out of porcine skin (Spear Products, Cooopersburg, PA) using a […] biopsy punch tool. Three different kinds of skin buttons were prepared from fresh porcine skin, frozen porcine skin, and frozen porcine skin with the fatty layer removed. […] The next day, the tubes were taken out and vortexed and 500 μL of the solution was aliquoted into cuvettes to read at three different optical density wavelengths (OD190, OD290, OD300) to evaluate the best response.
# Skin Preparation • 1. Thaw 2 pieces of frozen porcine skin • 2. Punch out buttons: 24 buttons in each tube filled with 40 mL PB S-Azide 96-well plate Preparation • 1. Plate layout for dosing:
# Procedure • 1. Dose each tissue with 140 μL of test chemical • 2. […] Take out of incubator and vortex pulse 3× • 2. Aliquot 500 μL to cuvette and read results at OD190, OD290, and OD300
# There were three readings done at an optical density of 190, 290, and 300 nm to evaluate the best response. […] To address the variable exposure conditions, our next studies involved placing a larger porcine skin section into a holder that exposes only the epidermis side with no potential for test chemical exposure from the backside or through the sides.
# skin = conditions: rabbit, in vivo; cited from earlier work
# alkaline phosphatase [1] = assay: Alkaline phosphatase experiment, ninth week: microcentrifuge tubes vs glass vials; format: biochemical; conditions: ethanol alkaline phosphatase 1:100, 4 hours room temperature, 1-hour PNPP
# Procedure: Feb. […] The test chemicals included water, acetic acid, heptanal, dimethylisopropylamine, n-Heptylamine, and N,N-Dimethylbenzylamine. We believe that when tilting the glass vial to mix by pipette/re-pipette, the alkaline phosphatase is sticking to the sides and therefore when the p-Nitrophenyl phosphate disodium salt (PNPP) is added, it immediately detects alkaline phosphatase presence and turns intensely yellow. In addition, by sticking to the side of the vial, since the volume of the test chemical added is low, the chance the test chemical interacting with the alkaline phosphatase might be less, therefore resulting in an intensely yellow enzyme reaction product. This study focused on the two stocks (one from previous experiment and a freshly made one) 1:100 concentration ethanol alkaline phosphatase reaction reagent. […] For the 4 mL vials, 30 μL of the test chemical is added to 300 μL of the alkaline phosphatase reaction reagent and incubated for 4 hours at room temperature.
# phosphatase = format: biochemical, porcine
# Procedure: Our next studies involved applying the test substance (500 μL) directly to the epidermis side of previously frozen porcine skin (Spear Products, Coopersburg, PA) that is placed in a holder that only exposes the epidermis side for 30 minutes, adding phosphate buffered saline (PBS) with added sodium azide (metabolic inhibitor that ensure no viable tissue), then aliquoting into cuvettes to read at an optical density of 300 nm. […] So, at the end of the initial studies described above, almost out of frustration, we tried to probe for released phosphatase activity using p-Nitrophenyl phosphate disodium salt (PNPP; Sigma Aldrich, St. Louis, MO) substrate solution to detect any presence of phosphatase.
# Preparation • 1. Thaw 2 pieces of frozen porcine skin • a. Punch out as many skin discs and mount in holders • 2. Label cuvettes (3 for each chemical) Procedure • 1. Add 500 μL of test chemical to holder; incubate at room temperate for 30 minutes • 2. After 30 minutes, add 2 mL of PBS-Azide to both the holder containing the test chemical; forcefully pipette and re-pipette 10 times • 3. From the holder, aliquot 400 μL into 3 cuvettes; forcefully pipette and re-pipette 3 times before dispensing into cuvettes Reading Results • 1. Measure at OD300 for all cuvettes
# Skin corrosion by GHS Category 1 dermal corrosive chemicals results in the disintegration of the epidermis into the dermis.
# alkaline phosphatase [2] = format: biochemical
# Procedure: New stocks were made the of the 1:100 alkaline phosphatase reaction reagents.
# The conditions included: 1:100 dilution of alkaline phosphatase reaction reagent with two solvents (buffered saline and ethanol), dosing in 0.5 mL microcentrifuge tubes with 20 μL of chemical added to 180 μL of reaction reagent, and incubating with p-Nitrophenyl phosphate disodium salt (PNPP) substrate for 1-hour.
# alkaline phosphatase [3] = format: biochemical; conditions: PBS; 18 hours room temperature, PNPP 1 hour
# From the text: Our next study compared different dilutions of the original alkaline phosphatase source (1:10 [Activity: 1,000 units] and 1:100 [100 units]) and two sources of alkaline phosphatase, both purchased from Sigma Aldrich (St. Louis, MO). […] The five conditions for this study included original alkaline phosphatase (1:1), original alkaline phosphatase (1:10), original alkaline phosphatase (1:100), new alkaline phosphatase (1:1), and the blanks (phosphate buffered saline (PBS)). […] The two controls contained ink to determine if there would be any background effect.
# Preparation • 1. Alkaline phosphatase reaction reagent • a. Original AP • i. Add 1 mL PBS into AP vial, pipette re-pipette 10 times, then invert with cap on, to mix well. Take this 1 mL and add to 50 mL conical tube filled with 40 mL PBS. Invert to mix 10 times, vortex mix, let sit 2 minutes, invert to mix again 10 times • ii. Prepare 2 more 50 mL conical tubes • 1. 1:10 • a. […] 1:100 • a. Take 4 mL of solution made above, add to 36 mL PBS. […] New AP • i. Add 400 mg into a 50 mL conical tube filled with 40 mL PBS. Invert to mix 10 times, vortex mix, let sit 2 minutes, invert to mix 10 more times. Check to make sure all suspended. If not, vortex mix and invert until fully suspended. • 2. Prepare 24-well plates • 3. […] Aliquot with 200 μL PNPP Conditions • 1. Old AP • 2. Old AP (1:10) • 3. Old AP (1:100) • 4. New AP • 5. Blank (PBS only) Procedure • 1. 24-well plates • a. Add 1 mL (using P1000, blue tips) of the prepared PBS-AP to the plate (for each condition) • b. Add 100 μL of the test material to the well, mix with the same pipette tip, dispose and repeat for the rest of the test materials • c. Wrap the plate in saran wrap and place into the container • d. […] To the prepared 96-well plate with 200 μL PNPP or PBS, add 20 μL from the 24-well plate • 3. Incubate for 1 hour • 4.
# [4] = cited from earlier work
# alkaline phosphatase [5] = conditions: 30 μL chemical in 300 μL reagent 1:100, 4 hours room temperature, 3 mL PNPP 1 hour
# Procedure: We changed the test chemical dosage to 30 μL and the alkaline phosphatase reaction reagent to 300 μL, but kept the incubation to 4 hours at room temperature.
# PBS: Take 4 mL of AP (1:10) stock solution, add to 36 mL PBS. Vortex mix and then invert to mix 10 times • ii. […] Vortex mix and then invert to mix 10 times • b. PBS (lx) • c. […] Prepare 4 mL glass vials for dosing • a. Four sets • i. R1+ (PBS-AP) • ii. R1− (PBS) • iii. […] Prepare 96-well plates for PNPP reading (3 wells for each test chemical) Procedure • 1. Aliquot 300 μL of each reaction reagent to 4 mL glass vials. • 2. Add 30 μL of the test sample to each 4 mL glass vial. • 3. Incubate at room temperature for 4 hours. • 4. Aliquot 3 mL of PNPP to each 4 mL glass vial, let sit for 1 hr. • a. Aliquot 750 μL into the 4 mL glass vial to stop the reaction. • 5.
# alkaline phosphatase [6] = assay: Alkaline phosphatase experiment, seventh week: 1:100 vs 1:1000 dilution, room temperature vs 37° C.; conditions: 4-hour exposure, 1-hour PNPP
# Procedure: Preparation • 1. Alkaline phosphatase reaction reagent • a. 1:100 • i. PBS: Take 400 μL of AP (1:10) stock solution, add to 3.6 mL PBS. Vortex mix and then invert to mix 10 times • ii. […] Vortex mix and then invert to mix 10 times • b. 1:1000 • i. PBS: Take 400 μL of AP (1:100) stock solution, add to 3.6 mL PBS. Vortex mix and then invert to mix 10 times • ii. […] Vortex mix and then invert to mix 10 times • 2. Prepare 0.5 mL microcentrifuge tubes for dosing • a. One set for room temperature, one set for 37° C. • 3. Prepare 96-well plates for PNPP reading (3 wells for each test chemical) • a. Aliquot with 200 μL PNPP Conditions • 1. 1:100 in PBS at RT • 2. […] 1:100 in PBS at 37° C. • 4. […] 1:1000 in PBS at RT • 6. […] 1:1000 in PBS at 37° C. • 8. […] Procedure • 1. In each microcentrifuge tube for each condition, add 180 μL of the corresponding AP reaction reagent • 2. Add 20 μL of the test chemical to each microcentrifuge tube • 3. Incubate for 4 hours (one set at room temperature; one set at 37° C.) • 4. To prepared 96-well plates with 200 μL PNPP aliquoted, add 20 μL of each microcentrifuge tube to the corresponding well • 5.
# [7] = frozen porcine skin with fat layer removed
compound,measurement,setting,value
CCCCCCC=O [Heptanal],OD190,"porcine skin; fresh porcine skin, 140 μL test chemical, >3A = outside readable range",0.486 and 0.365
same,OD290,porcine skin; fresh porcine skin,0.170 and 0.165
same,OD300,porcine skin; fresh porcine skin,0.123
same,OD190,porcine skin; [7],0.144 and 0.149
same,OD290,porcine skin; [7],0.111 and 0.140
same,OD300,porcine skin; [7],0.040 and 0.050
same,OD190,porcine skin; frozen porcine skin,0.362 and 0.371
same,OD290,porcine skin; frozen porcine skin,0.245 and 0.241
same,OD300,porcine skin; frozen porcine skin,0.154 and 0.137
same,Corrosive,skin,No
same,in vivo GHS,skin,Cat. 2
same,"OD405 readings, glass vials (FIG. 12B)",alkaline phosphatase [1],0.804 and 0.852 and 0.901
same,"OD405 readings, microcentrifuge tubes (FIG. 12B)",alkaline phosphatase [1],2.360 and 2.539 and 2.690
same,"percent of phosphatase measured (optical density compared to the naïve condition), average",phosphatase; average of two readings,97.2%
same,percent of phosphatase measured (optical density compared to the naïve condition),phosphatase; single readings,100.0% and 94.4%
same,A2 - Results AVG,alkaline phosphatase [2],2.408
same,A2 - Results R1,alkaline phosphatase [2],2.730
same,A2 - Results R3,alkaline phosphatase [2],2.098
"CN(C)Cc1ccccc1 [N,N-Dimethylbenzylamine]","OD405 readings, original alkaline phosphatase 1:100 (FIG. 6D)",alkaline phosphatase [3],3.431 and 3.502 and 3.61
same,solubility with water,[4],mostly insoluble with water
same,in vivo GHS,skin,Cat. 1C
same,"OD405 readings, buffered saline alkaline phosphatase reaction reagent, glass vials (FIG. 11B)",alkaline phosphatase [5],3.360 and 3.238 and 3.273
same,"OD405 readings, ethanol alkaline phosphatase reaction reagent, glass vials (FIG. 11D)",alkaline phosphatase [5],3.429 and 3.249 and 3.164
same,A2 - Results AVG,alkaline phosphatase [2],0.570
same,A2 - Results R1,alkaline phosphatase [2],0.588
same,A2 - Results R3,alkaline phosphatase [2],0.539
same,"OD405 reading, 1:1000 ethanol solvent condition (FIG. 9B)",alkaline phosphatase [6],0.587
